Tests used:
Assay type in all cases: biochemical
KDR = KDR (Homo sapiens, UniProt P35968); experiment: KDR HTRF in vitro kinase assay; parameters: purified enzyme (His6-KDR 789-1354, MW 63 kD); His6 (N); conditions: 1 mM ATP; read-out: KDR enzyme inhibition data (Ki)
Description: To determine the activity of the various kinases, a homogenous time-resolved fluorescence (HTRF) in vitro kinase assay was used. (Mathis, G., HTRF® Technology. J Biomol Screen, 1999. 4(6): p. 309-314; Alfred J. Kolb, Paul V. Kaplita, David J. Hayes, Young-Whan Park, Christine Pernell, John S. Major and Gerard Mathis, Drug Discovery Today, 1998, 3, 333-342.)
For example for KDR, 7 ng/well of purified enzyme (His6-KDR 789-1354, MW 63 kD) was mixed with 0.5 μM N-biotinylated substrate (Biotin-Ahx-AEEEYFFLA-amide (SEQ. ID. 1)), various concentrations of inhibitor in reaction buffer (50 mM HEPES, pH 7.1, 10 mM MgCl2, 2 mM MnCl2, 0.1% BSA and 1 mM DTT, 40 L final volume), ATP (1 mM final conc.) in a black 384-well plate. After 60 minutes incubation at room temperature, the reaction was quenched by addition of a buffered EDTA solution (final approximate concentrations: 30 mM EDTA, 0.1% BSA, 0.1% Triton X-100 and 0.24M KF) and a solution of revelation agents (to give 0.084 ng/well streptavidin-XL-665 (Cis-Bio) and 6.5 ng/well antiphsophotyrosine mAb PT66-K Europium kryptate) was added to the reaction mixture. The quenched reaction was allowed to stand at room temperature for 3 hours and was then read in a time-resolved fluorescence detector (InVision, Perkin-Elmer) at 620 nm and 665 nm sequentially with excitation. The ratio between the signal of 620 nm and 665 nm was used in the calculation of the IC50.

Aurora A = molecular target: T1, Aurora A (Homo sapiens, UniProt O14965); experiment: Aurora A enzyme inhibition (time-resolved fluorescence, STK substrate-2); conditions: 1 mM ATP
T1 sequence (O14965 1-403): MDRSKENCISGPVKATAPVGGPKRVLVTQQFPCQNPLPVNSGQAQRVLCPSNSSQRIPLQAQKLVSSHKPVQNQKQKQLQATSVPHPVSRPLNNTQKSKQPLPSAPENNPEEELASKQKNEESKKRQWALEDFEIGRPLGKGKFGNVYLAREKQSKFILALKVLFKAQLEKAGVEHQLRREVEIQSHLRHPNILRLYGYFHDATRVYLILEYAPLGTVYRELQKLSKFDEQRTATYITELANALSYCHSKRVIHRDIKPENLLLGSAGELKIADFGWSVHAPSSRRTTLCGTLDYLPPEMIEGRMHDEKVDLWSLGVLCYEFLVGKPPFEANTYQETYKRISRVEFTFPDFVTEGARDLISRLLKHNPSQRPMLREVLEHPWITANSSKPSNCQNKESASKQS
Description: To determine Aurora A and C activity of representative compounds of the invention, Active Aurora A or C enzyme was incubated in wells of a 384 well plate with biotinylated STK substrate-2 (Upstate), 1 mM ATP, and various concentrations of inhibitors in a Hepes buffer, pH 7.4 containing MgCl2, sodium othrovanadate, and Triton X-100. After 1 hour, the reaction was stopped with EDTA and anti-phospho-STK antibody Europium Cryptate (Upstate) and SA-XL665 (Upstate) were added to detect the phosphopeptide. The amount of phosphorylation was determined by the time-resolved fluorescence ratio of signals at 665 nm and 615 nm. The IC50s were calculated by an exponential fit of the inhibition values with the inhibitor concentrations using Assay Explorer software.

Aurora B = molecular target: T2, Aurora B (Homo sapiens, UniProt Q96GD4); experiment: Aurora B enzyme inhibition (time-resolved fluorescence, histone H3 peptide); conditions: 1 mM ATP
T2 construct: Active Aurora B enzyme (recombinant residues 1-344)
Description: To determine Aurora B activity of representative compounds of the invention, Active Aurora B enzyme (recombinant residues 1-344) and INCENP (recombinant GST fusion protein (Upstate)) were incubated in wells of a 384 well plate with biotinylated histone H3 peptide residues 1-21 (Upstate), 1 mM ATP, and various concentrations of inhibitors in a HEPES buffer, pH 7.4 containing MgCl2, sodium othrovanadate, and Triton X-100. After 1 hour, the reaction was stopped with EDTA and anti-phospho-histone H3 Europium Cryptate (Cis-Bio) and SA-APC (Phycolink, Prozyme) were added to detect the phosphopeptide. The amount of phosphorylation was determined by the time-resolved fluorescence ratio of signals at 665 nm and 615 nm. The IC50's were calculated by an exponential fit of the inhibition values with the inhibitor concentrations using Assay Explorer software.

Measured: Ki

T2 sequence (Q96GD4 whole entry, the tested form may be a part): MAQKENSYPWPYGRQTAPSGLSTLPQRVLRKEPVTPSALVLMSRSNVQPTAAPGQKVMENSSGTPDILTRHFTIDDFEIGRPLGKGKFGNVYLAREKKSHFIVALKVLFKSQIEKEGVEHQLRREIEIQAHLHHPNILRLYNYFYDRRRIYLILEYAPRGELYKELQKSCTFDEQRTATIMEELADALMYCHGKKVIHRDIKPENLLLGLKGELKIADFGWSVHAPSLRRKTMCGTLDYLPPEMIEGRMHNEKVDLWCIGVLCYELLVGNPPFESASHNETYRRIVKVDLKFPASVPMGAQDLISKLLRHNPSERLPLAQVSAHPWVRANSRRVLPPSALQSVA
T2 sequence (Q9NQS7 826-918 partner limits assumed): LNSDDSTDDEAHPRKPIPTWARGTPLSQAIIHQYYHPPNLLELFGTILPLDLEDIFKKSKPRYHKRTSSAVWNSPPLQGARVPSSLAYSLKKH
KDR, sequence (P35968 789-1354): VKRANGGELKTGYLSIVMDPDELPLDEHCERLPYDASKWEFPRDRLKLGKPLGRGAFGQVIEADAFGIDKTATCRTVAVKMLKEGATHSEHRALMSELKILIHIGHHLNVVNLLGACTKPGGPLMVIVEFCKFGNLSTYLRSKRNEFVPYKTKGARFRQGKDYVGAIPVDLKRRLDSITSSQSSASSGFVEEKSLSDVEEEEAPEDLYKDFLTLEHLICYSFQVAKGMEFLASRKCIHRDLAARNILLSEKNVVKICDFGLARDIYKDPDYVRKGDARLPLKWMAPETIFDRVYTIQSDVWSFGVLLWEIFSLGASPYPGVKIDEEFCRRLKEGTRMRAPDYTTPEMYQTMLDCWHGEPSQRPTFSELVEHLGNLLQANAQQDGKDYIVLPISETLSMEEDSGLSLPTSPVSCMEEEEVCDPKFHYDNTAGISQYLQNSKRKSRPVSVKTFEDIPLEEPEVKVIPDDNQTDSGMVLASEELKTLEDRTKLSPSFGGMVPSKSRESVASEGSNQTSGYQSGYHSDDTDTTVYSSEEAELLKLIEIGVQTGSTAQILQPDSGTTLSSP

CN(C)CCn1cc(Nc2ncc(Cl)c(N[C@@H]3[C@H](C(N)=O)[C@H]4C=C[C@@H]3C4)n2)cn1.CN(C)CCn1cc(Nc2ncc(Cl)c(N[C@H]3[C@@H](C(N)=O)[C@@H]4C=C[C@H]3C4)n2)cn1 (mixture of isomers) [Example 33, (1S,2S,3R,4R)-3-{[5-chloro-2-({1-[2-(dimethylamino)ethyl]-1H-pyrazol-4-yl}amino)pyrimidin-4-yl]amino}bicyclo[2.2.1]hept-5-ene-2-carboxamide and (1R,2R,3S,4S)-3-{[5-chloro-2-({1-[2-(dimethylamino)ethyl]-1H-pyrazol-4-yl}amino)pyrimidin-4-yl]amino}bicyclo[2.2.1]hept-5-ene-2-carboxamide]
< 100 nM: all assays above

NC(=O)[C@@H]1[C@H](Nc2nc(Nc3cnn(CCN4CCCCC4)c3)ncc2Cl)[C@H]2C=C[C@@H]1C2.NC(=O)[C@H]1[C@@H](Nc2nc(Nc3cnn(CCN4CCCCC4)c3)ncc2Cl)[C@@H]2C=C[C@H]1C2 (mixture of isomers) [Example 36, (1S,2S,3R,4R)-3-[(5-chloro-2-{[1-(2-piperidin-1-ylethyl)-1H-pyrazol-4-yl]amino}pyrimidin-4-yl)amino]bicyclo[2.2.1]hept-5-ene-2-carboxamide and (1R,2R,3S,4S)-3-[(5-chloro-2-{[1-(2-piperidin-1-ylethyl)-1H-pyrazol-4-yl]amino}pyrimidin-4-yl)amino]bicyclo[2.2.1]hept-5-ene-2-carboxamide]
< 100 nM: all assays above

NC(=O)[C@@H]1[C@H](Nc2nc(Nc3cnn(CCN4CCCCC4)c3)ncc2Br)[C@H]2C=C[C@@H]1C2.NC(=O)[C@H]1[C@@H](Nc2nc(Nc3cnn(CCN4CCCCC4)c3)ncc2Br)[C@@H]2C=C[C@H]1C2 (mixture of isomers) [Example 38, (1S,2S,3R,4R)-3-[(5-bromo-2-{[1-(2-piperidin-1-ylethyl)-1H-pyrazol-4-yl]amino}pyrimidin-4-yl)amino]bicyclo[2.2.1]hept-5-ene-2-carboxamide and (1R,2R,3S,4S)-3-[(5-bromo-2-{[1-(2-piperidin-1-ylethyl)-1H-pyrazol-4-yl]amino}pyrimidin-4-yl)amino]bicyclo[2.2.1]hept-5-ene-2-carboxamide]
< 100 nM: all assays above

NC(=O)[C@@H]1[C@H](Nc2nc(Nc3cnn(CCN4CCOCC4)c3)ncc2Br)[C@H]2C=C[C@@H]1C2.NC(=O)[C@H]1[C@@H](Nc2nc(Nc3cnn(CCN4CCOCC4)c3)ncc2Br)[C@@H]2C=C[C@H]1C2 (mixture of isomers) [Example 39, (1S,2S,3R,4R)-3-[(5-bromo-2-{[1-(2-morpholin-4-ylethyl)-1H-pyrazol-4-yl]amino}pyrimidin-4-yl)amino]bicyclo[2.2.1]hept-5-ene-2-carboxamide and (1R,2R,3S,4S)-3-[(5-bromo-2-{[1-(2-morpholin-4-ylethyl)-1H-pyrazol-4-yl]amino}pyrimidin-4-yl)amino]bicyclo[2.2.1]hept-5-ene-2-carboxamide]
< 100 nM: all assays above

Cn1cc(Nc2ncc(Cl)c(N[C@@H]3CCC[C@@H]3C(N)=O)n2)cn1.Cn1cc(Nc2ncc(Cl)c(N[C@H]3CCC[C@H]3C(N)=O)n2)cn1 (mixture of isomers) [Example 43, (1S,2R)-2-({5-chloro-2-[(1-methyl-1H-pyrazol-4-yl)amino]pyrimidin-4-yl}amino)cyclopentanecarboxamide and (1R,2S)-2-({5-chloro-2-[(1-methyl-1H-pyrazol-4-yl)amino]pyrimidin-4-yl}amino)cyclopentanecarboxamide]
< 100 nM: all assays above

NC(=O)[C@@H]1[C@H](Nc2nc(Nc3cnn(CCN4CCCC4)c3)ncc2F)[C@H]2C=C[C@@H]1C2.NC(=O)[C@H]1[C@@H](Nc2nc(Nc3cnn(CCN4CCCC4)c3)ncc2F)[C@@H]2C=C[C@H]1C2 (mixture of isomers) [Example 45, (1S,2S,3R,4R)-3-[(5-fluoro-2-{[1-(2-pyrrolidin-1-ylethyl)-1H-pyrazol-4-yl]amino}pyrimidin-4-yl)amino]bicyclo[2.2.1]hept-5-ene-2-carboxamide and (1R,2R,3S,4S)-3-[(5-fluoro-2-{[1-(2-pyrrolidin-1-ylethyl)-1H-pyrazol-4-yl]amino}pyrimidin-4-yl)amino]bicyclo[2.2.1]hept-5-ene-2-carboxamide]
< 100 nM: all assays above

CNC(=O)[C@@H]1[C@H](Nc2nc(Nc3cnn(C)c3)ncc2C(F)(F)F)[C@H]2C=C[C@@H]1C2.CNC(=O)[C@H]1[C@@H](Nc2nc(Nc3cnn(C)c3)ncc2C(F)(F)F)[C@@H]2C=C[C@H]1C2 (mixture of isomers) [Example 47, (1S,2S,3R,4R)—N-methyl-3-{[2-[(1-methyl-1H-pyrazol-4-yl)amino]-5-(trifluoromethyl)pyrimidin-4-yl]amino}bicyclo[2.2.1]hept-5-ene-2-carboxamide and (1R,2R,3S,4S)—N-methyl-3-{[2-[(1-methyl-1H-pyrazol-4-yl)amino]-5-(trifluoromethyl)pyrimidin-4-yl]amino}bicyclo[2.2.1]hept-5-ene-2-carboxamide]
< 100 nM: all assays above

CNC(=O)[C@@H]1[C@H](Nc2nc(Nc3cnn(C)c3)ncc2Br)[C@H]2C=C[C@@H]1C2.CNC(=O)[C@H]1[C@@H](Nc2nc(Nc3cnn(C)c3)ncc2Br)[C@@H]2C=C[C@H]1C2 (mixture of isomers) [Example 48, (1S,2S,3R,4R)-3-({5-bromo-2-[(1-methyl-1H-pyrazol-4-yl)amino]pyrimidin-4-yl}amino)-N-methylbicyclo[2.2.1]hept-5-ene-2-carboxamide and (1R,2R,3S,4S)-3-({5-bromo-2-[(1-methyl-1H-pyrazol-4-yl)amino]pyrimidin-4-yl}amino)-N-methylbicyclo[2.2.1]hept-5-ene-2-carboxamide]
< 100 nM: all assays above

CCn1cc(Nc2ncc(Br)c(N[C@@H]3[C@H](C(=O)NC)[C@H]4C=C[C@@H]3C4)n2)cn1.CCn1cc(Nc2ncc(Br)c(N[C@H]3[C@@H](C(=O)NC)[C@@H]4C=C[C@H]3C4)n2)cn1 (mixture of isomers) [Example 49, (1S,2S,3R,4R)-3-({5-bromo-2-[(1-ethyl-1H-pyrazol-4-yl)amino]pyrimidin-4-yl}amino)-N-methylbicyclo[2.2.1]hept-5-ene-2-carboxamide and (1R,2R,3S,4S)-3-({5-bromo-2-[(1-ethyl-1H-pyrazol-4-yl)amino]pyrimidin-4-yl}amino)-N-methylbicyclo[2.2.1]hept-5-ene-2-carboxamide]
< 100 nM: all assays above
